In patent publication US20070270350A1, “Methods and Compositions for the Prevention and Treatment of Inflammatory Diseases or Conditions” (MUSC FOUNDATION FOR RESEARCH DEVELOPMENT, priority 2003, published 2007):

Columns and labels:
iNOS = assay: LPS-induced iNOS expression and iNOS promoter activity in primary astrocytes (AICAR); format: cell-based, rat
Experimental: Immunoblot Analysis: Cells were harvested in ice-cold lysis buffer (50 mM Tris-HCl, pH 7.4, containing 50 mM NaCl, 1 mM EDTA, 0.5 mM EGTA, 10% glycerol and protease inhibitor cocktail) and protein was estimated using Bradford reagent (Bio-Rad, USA). Fifty microgram of total protein/lane was separated by SDS-PAGE and blotted to nitrocellulose (Amersham Pharmacia Biotech). Blots were blocked for 1 h in 5% nonfat dry milk-TBS-0.1% Tween 20 and incubated overnight with primary antibody (1:1000) in 5% BSA-TBS-0.1% Tween 20 at 4° C. This was followed by incubation of 1 h with appropriate secondary peroxidase conjugated antibody (1:10,000, Sigma). Immunoreactivity was detected using the enhanced chemiluminescence detection method according to the manufacturer's instructions (Amersham Pharmacia Biotech) and subsequent exposure of the membrane to X-ray film. Antisense experiments: To decrease the levels of endogenous AMPK, astrocytes were pretreated for 48 h with 25 μm (of phosphothiorated antisense (AS) oligonucleotide ([NT]) directly against both the ? α1 and α2 ? subunits of AMPK (Culmsee et al., 2001) ? ? ? missense (MS) oligonucleotide ([NT]) was used in control cultures. Oligonucleotides were transfected with OligofectamineTM reagent as per manufacturer's instructions. Northern blot, gene array analysis and RT-PCR for cytokines expression: Total RNA was extracted with Trizol (Gibco) according to the manufacturer's protocol. Northern blot for iNOS was performed with 15 μg of RNA per reaction as described previously (Pahan et al., 1997). β-actin was used as control for RNA loading. Gene expression array for inflammatory cytokines (TNFα, IL-1β, IL-6 and IFN-γ) was used according to the manufacturer's protocol (Superarray). Signal quantitation was determined using imaging densitomter (Bio-Rad Lab, Hercules, Calif.). For RT-PCR, RNA was isolated from treated rat brain cerebral cortex by extracting in Trizol as above. cDNA was prepared from 5 μg of total RNA using poly dT as a primer and Moloney murine leukemia virus reverse transcriptase (Promega) as per manufacturer's instructions. 2 μl of cDNA was used to amplify the following products [given as product name, expected size, and forward (F) and reverse (R) primers used]: iNOS, 730 bp. ([NT]-1β, 623 bp. ([…]-α, 473 bp. ([…], 528 bp. […] Transcriptional assays: Primary astrocytes or microglial cell line (BV2) were transiently transfected with NF- ? B-or iNOS-luciferase reporter gene with ? -galactosidase in the presence or absence of dominant negative AMPKα2 or HA-IKK ? by lipofectamine-2000 (astrocytes) and lipofectamine-Plus (BV2, Invitrogen) according to the manufacturer instructions. pcDNA3 was used to normalize all groups to equal amounts of DNA. Luciferase activity was determined using a luciferase kit (Promega).

AMPK = assay: Phosphorylation of AMPK and ACC in primary astrocytes (immunoblot); format: cell-based, rat
Experimental: Immunoblot Analysis: Cells were harvested in ice-cold lysis buffer (50 mM Tris-HCl, pH 7.4, containing 50 mM NaCl, 1 mM EDTA, 0.5 mM EGTA, 10% glycerol and protease inhibitor cocktail) and protein was estimated using Bradford reagent (Bio-Rad, USA). Fifty microgram of total protein/lane was separated by SDS-PAGE and blotted to nitrocellulose (Amersham Pharmacia Biotech). Blots were blocked for 1 h in 5% nonfat dry milk-TBS-0.1% Tween 20 and incubated overnight with primary antibody (1:1000) in 5% BSA-TBS-0.1% Tween 20 at 4° C. This was followed by incubation of 1 h with appropriate secondary peroxidase conjugated antibody (1:10,000, Sigma). Immunoreactivity was detected using the enhanced chemiluminescence detection method according to the manufacturer's instructions (Amersham Pharmacia Biotech) and subsequent exposure of the membrane to X-ray film.
Antisense experiments: To decrease the levels of endogenous AMPK, astrocytes were pretreated for 48 h with 25 μm (of phosphothiorated antisense (AS) oligonucleotide (5′ […]-3′) directly against both the ? α1 and α2 ? subunits of AMPK (Culmsee et al., 2001) ? ? ? missense (MS) oligonucleotide (5′ […]-3′) was used in control cultures. Oligonucleotides were transfected with Oligofectamine™ reagent as per manufacturer's instructions.
AMPK and IKKα/ ? assays: AMPK activity was assayed in primary rat astrocytes as described (Kim et al., 2001). […]

[1] = tested on: rat model of focal cerebral ischemia (MCAO); assay: Focal cerebral ischemia model (20 min MCAO, reperfusion); format: in vivo; details: GSH up to 150 mg/kg body weight after the onset of ischemia
Experimental: Animals. A total of 60 male Sprague-Dawley rats (Charles River Laboratories, Wilmington, Mass.) weighing 250-300 g were used in this study. All animals received humane care in compliance with the Medical University of South Carolina's guidance and the National Research Council's criteria for humane care as outlined in ‘Guide for the Care and Use of Laboratory Animals’. Body temperature was monitored by a rectal probe and maintained at 37±0.5° C. by a homeothermic blanket control unit (Harvard Apparatus, Holliston, Mass.). Cranial temperature and mean arterial blood pressure were measured by HSE Plugsys TAM-D and TCAM (Harvard Apparatus) respectively.
Experimental design and administration of drugs. All animal procedures were approved by the Medical University of South Carolina Animal Review Committee and were in accordance with the guidelines for animal use published by the National Institute of Health. […]
Measurement of physiological variables. The physiological variables were measured before, during MCA occlusion, at reperfusion and 30 min after reperfusion. The rectal temperature was monitored and maintained at about 37 to 37.6° C. […]
Evaluation of ischemic infarct and neurological score. […] The infarct area, outlined in white, was acquired by image-analysis software (Photoshop 4.0 Adobe System) and measured by NIH image software. […]

[2] = X-ALD patients; cited from earlier work

## 5′ CGCCCGTCGTCGTGCTTCTGC-3′ (phosphorothioate, further chemistry not given here) [antisense (AS), phosphothiorated antisense oligonucleotide against the α1 and α2 subunits of AMPK]
iNOS; AMPK antisense 25 μM, then LPS 1 μg/ml
  LPS mediated iNOS protein expression: significantly induced
AMPK; 25 μM antisense, 48 h
  catalytic subunit AMPKα1 level (immunoblot): decreased

## Nc1ncnc2c1c(I)cn2[C@@H]1O[C@H](CO)[C@@H](O)[C@H]1O [5-iodotubercidin]
iNOS; adenosine kinase inhibitor with AICAR and LPS, 24 h
  effect on inhibition induced by AICAR on iNOS protein expression: reverse the inhibition
AMPK; adenosine kinase inhibitor 0.1 μM, 30 min before AICAR 1 mM
  effect on AICAR induced phosphorylation of AMPK and ACC: blocked

## N[C@@H](CCC(=O)N[C@@H](CS)C(=O)NCC(=O)O)C(=O)O [GSH, gamma-glutamylcysteinylglycine]
[1]
  protective effect in ischemia: no protective effect

## CCCCCCCC/C=C\CCCCCCCC(=O)OCC(COC(=O)CCCCCCC/C=C\CCCCCCCC)OC(=O)CCCCCCC/C=C\CCCCCCCC [trioleate]
[2]
  reduction of VLCFA: 50%
